In patent US12427192B2, “Water soluble adjuvant and composition containing same” (Sumitomo Pharma Co., Ltd., priority 2019, dated 2025):

Columns and labels:
[1] = system: HLA-A*02:01 transgenic mouse; assay: Test 11: in vivo adjuvant activity, cocktail vaccine f (emulsified composition 1), IFNγ ELISPOT; details: added to cocktail vaccine f (emulsified composition 1); 0.04 nmol or 0.4 nmol per body, twice; FIG. 10 and 11
Method: (§1) Evaluation of In Vivo Adjuvant Activity in HLA-A*02:01 Transgenic Mouse
The in vivo adjuvant activity of the compound of Example 1 was evaluated in the following procedure. To a cocktail vaccine (emulsified composition 1) comprising Compound of formula 4 prepared in Reference example 8 and Peptide SEQ ID No. 3 prepared in Reference example 3 (hereinafter, referred to as “cocktail vaccine f”) was added the compound prepared in Example 1 to prepare a vaccine. The vaccine was administered to a HLA-A*02:01 transgenic mouse, and the adjuvant activity of the vaccine was evaluated by the method of testing antigen-specific CTL induction.
(§2) For example, the above emulsified composition 1 was prepared as follows. 95.8% (w/w) of soybean oil, 3% (w/w) of PEG-30 dipolyhydroxy stearate, and 1.2% (w/w) of polysorbate 80 were mixed to prepare an oil-phase mixture. The amount of the preparation was adjusted as appropriate. Compound of formula 4 and Peptide SEQ ID No. 3 were mixed with pH 2.5 buffer (10 mM tartaric acid, 10% trehalose) to adjust each concentration to 3 mg/mL and 2.25 mg/mL, respectively. The prepared peptide dilution was mixed with an equal volume of the oil-phase mixture to give an emulsified product, cocktail vaccine f. […] Then, after removal of the supernatant from the wells, stained spots on the ELISPOT plate were counted.

[2] = system: HLA-A*02:01 transgenic mouse; assay: Test 12: in vivo adjuvant activity, cocktail vaccine g (emulsified composition 2), IFNγ ELISPOT; details: added to cocktail vaccine g (emulsified composition 2); 0.04 nmol or 0.4 nmol per body, twice; FIG. 12 and 13
Method: as §1
The in vivo adjuvant activity of the compound of Example 1 was evaluated in the following procedure. To a cocktail vaccine (emulsified composition 2) comprising Compound of formula 4 prepared in Reference example 8 and Peptide SEQ ID No. 3 prepared in Reference example 3 (hereinafter, referred to as “cocktail vaccine g”) was added the compound prepared in Example 1 to prepare a vaccine. The vaccine was administered to a HLA-A*02:01 transgenic mouse, and the adjuvant activity of the vaccine was evaluated by the method of testing antigen-specific CTL induction.
as §2, with “composition 2” for “composition 1”, “of medium-chain triglyceride (MYGLYOL 812),” for “of soybean oil,”, “vaccine g.” for “vaccine f.”

CCCCCNc1nc(N)nc(C)c1Cc1ccc(CN(C)CCOCCOCCOCCOCCO)cc1OC [Example 1, 1-(4-{[2-amino-4-methyl-6-(pentylamino)pyrimidin-5-yl]methyl}-3-methoxyphenyl)-2-methyl-5,8,11,14-tetraoxa-2-azahexadecan-16-ol·trifluoroacetate]
CTL counts responsive to Peptide SEQ ID No. 1 or SEQ ID No. 4 compared with adding no compound [1]: more | CTL counts responsive to Peptide SEQ ID No. 1 or SEQ ID No. 4 compared with adding no compound [2]: more
